Tested on: PGY-sRNA-26
Test: In vivo delivery study of lipid-nucleic acid mixture (oral gavage, RT-qPCR of PGY-sRNA-26 in tissues)
Parameters: species or system mouse
Details: C57BL/6 mice, gavage, 100 μg lipid: 10 nmol PGY-sRNA-26, 12 hours; for delivery efficacy over each tissue and blood tested (broad-spectrum delivery): all tissues and blood tested; for oral delivery of single-stranded sRNA nucleic acids into mouse intestinal tissue: intestine
How it was run: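 C57BL/6 male mice (~6 weeks, 20-24 g), fasted 12 h, were gavaged with 10 nmol 3′-methylated PGY-sRNA-26 mixed with 100 μg lipid (heated 90° C. 15 min), versus saline or free sRNA (n=4 each). After 12 h, blood and tissues were Trizol-extracted; sRNA quantified by stem-loop RT-qPCR relative to U6.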

Structure (SMILES)	delivery efficacy over each tissue and blood tested (broad-spectrum delivery)	oral delivery of single-stranded sRNA nucleic acids into mouse blood	oral delivery of single-stranded sRNA nucleic acids into mouse brain tissue	oral delivery of single-stranded sRNA nucleic acids into mouse femur	oral delivery of single-stranded sRNA nucleic acids into mouse heart tissue	oral delivery of single-stranded sRNA nucleic acids into mouse intestinal tissue	oral delivery of single-stranded sRNA nucleic acids into mouse kidney tissue	oral delivery of single-stranded sRNA nucleic acids into mouse liver tissue	oral delivery of single-stranded sRNA nucleic acids into mouse lung tissue	oral delivery of single-stranded sRNA nucleic acids into mouse spleen tissue	oral delivery of single-stranded sRNA nucleic acids into mouse stomach tissue
C=C1/C(=C\C=C2/CCC[C@]3(C)[C@@H]([C@H](C)/C=C/[C@H](C)C(C)C)CC[C@@H]23)C[C@@H](O)C[C@@H]1O [Lipid 569]	exhibited the best delivery efficacy	can effectively orally deliver	can effectively orally deliver	can effectively orally deliver	can effectively orally deliver	can effectively orally deliver	can effectively orally deliver	can effectively orally deliver	can effectively orally deliver	can effectively orally deliver	can effectively orally deliver
C[C@]12CCC(=O)C[C@@H]1CC[C@@H]1[C@@H]2CC[C@@]2(C)[C@H]1CC[C@]2(C)O [Lipid 539]	exhibited the best delivery efficacy	can effectively orally deliver	can effectively orally deliver	can effectively orally deliver	can effectively orally deliver	can effectively orally deliver	can effectively orally deliver	can effectively orally deliver	can effectively orally deliver	can effectively orally deliver	can effectively orally deliver
C[C@]12C=CC(=O)C=C1CC[C@@H]1[C@@H]2C(=O)C[C@@]2(C)[C@H]1CC[C@]2(O)C(=O)CO [Lipid 564]		can effectively orally deliver	can effectively orally deliver	can effectively orally deliver	can effectively orally deliver	can effectively orally deliver	can effectively orally deliver	can effectively orally deliver	can effectively orally deliver	can effectively orally deliver	can effectively orally deliver
CC(C)CCC[C@@H](C)[C@H]1CC[C@H]2[C@@H]3C[C@@H](O)[C@@]4(O)C[C@@H](O)CC[C@]4(C)[C@H]3CC[C@]12C [Lipid 551, Cholestan-3,5,6-triol (3S,5R,6R,8S,9S,10R,13R,14S,17R)-10,13-dimethyl-17-[(2R)-6-methylheptan-2-yl]-1,2,3,4,6,7,8,9,11,12,14,15,16,17-tetradecahydrocyclopenta[a]phenanthrene-3,5,6-triol]	exhibited the best delivery efficacy	can effectively orally deliver	can effectively orally deliver	can effectively orally deliver	can effectively orally deliver	can effectively orally deliver	can effectively orally deliver	can effectively orally deliver	can effectively orally deliver	can effectively orally deliver	can effectively orally deliver
C=C1/C(=C\C=C2/CCC[C@]3(C)[C@@H]([C@H](C)/C=C/[C@H](C)C(C)(C)O)CC[C@@H]23)C[C@@H](O)C[C@@H]1O [Lipid 570]	exhibited the best delivery efficacy	can effectively orally deliver	can effectively orally deliver	can effectively orally deliver	can effectively orally deliver	can effectively orally deliver	can effectively orally deliver	can effectively orally deliver	can effectively orally deliver	can effectively orally deliver	can effectively orally deliver
C[C@H](/C=C/[C@H](C)C(C)(C)O)[C@H]1CC[C@H]2/C(=C/C=C3C[C@@H](O)C[C@H](O)C3)CCC[C@]12C [Lipid 545]	exhibited the best delivery efficacy	can effectively orally deliver	can effectively orally deliver	can effectively orally deliver	can effectively orally deliver	can effectively orally deliver	can effectively orally deliver	can effectively orally deliver	can effectively orally deliver	can effectively orally deliver	can effectively orally deliver
C[C@]12CC[C@H](O)CC1=CC[C@@H]1[C@@H]2CC[C@]2(C)C(=O)CC[C@@H]12 [Lipid 561]		can effectively orally deliver		can effectively orally deliver							
CCC(=O)O[C@H]1CC[C@H]2[C@@H]3CCC4=CC(=O)CC[C@]4(C)[C@H]3CC[C@]12C [Lipid 568]	exhibited the best delivery efficacy	can effectively orally deliver	can effectively orally deliver	can effectively orally deliver	can effectively orally deliver	can effectively orally deliver	can effectively orally deliver	can effectively orally deliver	can effectively orally deliver	can effectively orally deliver	can effectively orally deliver
CC(C)CC[C@@H](O)[C@](C)(O)[C@H]1CC[C@@]2(O)C3=CC(=O)[C@@H]4C[C@@H](O)[C@@H](O)C[C@]4(C)[C@H]3CC[C@]12C [Lipid 538]	exhibited the best delivery efficacy	can effectively orally deliver	can effectively orally deliver	can effectively orally deliver	can effectively orally deliver	can effectively orally deliver	can effectively orally deliver	can effectively orally deliver	can effectively orally deliver	can effectively orally deliver	can effectively orally deliver
